These results are taken from US11897851B2, “Heterocyclic GLP-1 agonists” (Gasherbrum Bio, Inc., priority 2021, dated 2024).

This test concerns the target T1, GLP-1 Receptor (Homo sapiens, UniProt P43220).
T1 construct: host or cells: HEK293/GLP1R/CRE-LUC (HEK293/CRE-Luc stably expressing the GLP-1 receptor)
Kind of test: GLP-1R agonist cAMP stimulation assay (HEK293/GLP1R/CRE-LUC cells, Cisbio cAMP dynamic 2 kit).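 Further: compounds tested in half-log serial dilution, cAMP detected with cAMP-d2 and anti-cAMP cryptate antibody reagents after 1 h at room temperature.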 The note with it: HEK293/CRE-Luc cell line stably expressing the GLP-1 Receptor; 1000 cells/well; 30 min at 37° C.; 0.5 mM IBMX, 0.1% BSA; read-out: GLP1R cAMP Stimulation DR: EC50. The class given is cell-based.

T1 sequence (P43220 24-463, species assumed): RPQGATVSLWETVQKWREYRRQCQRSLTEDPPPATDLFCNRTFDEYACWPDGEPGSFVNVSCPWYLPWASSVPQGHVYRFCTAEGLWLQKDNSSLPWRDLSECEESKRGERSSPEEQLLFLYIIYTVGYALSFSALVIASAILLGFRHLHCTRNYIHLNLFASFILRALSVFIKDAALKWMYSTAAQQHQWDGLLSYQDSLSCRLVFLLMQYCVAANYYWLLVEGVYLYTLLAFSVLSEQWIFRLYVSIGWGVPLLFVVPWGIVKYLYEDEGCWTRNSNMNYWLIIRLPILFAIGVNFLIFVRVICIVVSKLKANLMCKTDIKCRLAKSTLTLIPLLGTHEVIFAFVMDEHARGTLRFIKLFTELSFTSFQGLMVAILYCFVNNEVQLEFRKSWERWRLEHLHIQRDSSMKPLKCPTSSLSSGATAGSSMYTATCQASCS

On to `COCC/C(=C\c1cnc(CN2CCC(c3cccc(OCc4ccc(Cl)cc4F)n3)CC2)n1C[C@@H]1CCO1)C(=O)O` [Compound 216a, (S,E)-2-((2-((4-(6-((4-chloro-2-fluorobenzyl)oxy)pyridin-2-yl)piperidin-1-yl)methyl)-1-(oxetan-2-ylmethyl)-1H-imidazol-5-yl)methylene)-4-methoxybutanoic acid], for which the EC50 worked out at 4.4 nM.
Regarding `C/C(=C\c1cnc(CN2CCC(c3cccc(OCc4ccc(Cl)cc4F)n3)CC2)n1C[C@@H]1CCO1)C(=O)O` [Compound 218a, (S,E)-3-(2-((4-(6-((4-chloro-2-fluorobenzyl)oxy)pyridin-2-yl)piperidin-1-yl)methyl)-1-(oxetan-2-ylmethyl)-1H-imidazol-5-yl)-2-methylacrylic acid], the EC50 amounted to 1.4 nM.
Under `CCn1cncc1Cn1c(/C=C(\C)C(=O)O)cnc1CN1CCC(c2cccc(OCc3ccc(Cl)cc3F)n2)CC1` [Compound 219, (E)-3-(2-((4-(6-((4-chloro-2-fluorobenzyl)oxy)pyridin-2-yl)piperidin-1-yl)methyl)-1-((1-ethyl-1H-imidazol-5-yl)methyl)-1H-imidazol-5-yl)-2-methylacrylic acid] stands 0.0069 nM; under `CCn1cncc1Cn1c(/C=C(\C)C(=O)O)cnc1CN1CCC(c2cccc(OCc3ccc(Cl)cn3)n2)CC1` [Compound 220, (E)-3-(2-((4-(6-((5-chloropyridin-2-yl)methoxy)pyridin-2-yl)piperidin-1-yl)methyl)-1-((1-ethyl-1H-imidazol-5-yl)methyl)-1H-imidazol-5-yl)-2-methylacrylic acid], 0.11 nM; under `COCCn1c(/C(F)=C/C(=O)O)cnc1CN1CCC(c2cccc(OCc3ccc(Cl)cc3F)n2)CC1` [Compound 221, (Z)-3-(2-((4-(6-((4-chloro-2-fluorobenzyl)oxy)pyridin-2-yl)piperidin-1-yl)methyl)-1-(2-methoxyethyl)-1H-imidazol-5-yl)-3-fluoroacrylic acid], 0.56 nM.
For the compound `O=C(O)/C=C/c1cn(Cc2ncco2)c(CN2CCC(c3cccc4c3OC[C@@H](c3ccc(Cl)cc3)O4)CC2)n1` [Compound 222a, (R,E)-3-(2-((4-(2-(4-chlorophenyl)-2,3-dihydrobenzo[b][1,4]dioxin-5-yl)piperidin-1-yl)methyl)-1-(oxazol-2-ylmethyl)-1H-imidazol-4-yl)acrylic acid], the EC50 turned out to be 6.9 nM.
For `COCCn1c(/C=C/C(=O)O)nnc1CN1CCC(c2cccc(OCc3ccc(Cl)cc3F)n2)CC1` [Compound 223, (E)-3-(5-((4-(6-((4-chloro-2-fluorobenzyl)oxy)pyridin-2-yl)piperidin-1-yl)methyl)-4-(2-methoxyethyl)-4H-1,2,4-triazol-3-yl)acrylic acid], the EC50 came to 0.47 nM.
Under `COCCn1c(/C=C(\C)C(=O)O)nnc1CN1CCC(c2cccc(OCc3ccc(Cl)cc3F)n2)CC1` [Compound 224, (E)-3-(5-((4-(6-((4-chloro-2-fluorobenzyl)oxy)pyridin-2-yl)piperidin-1-yl)methyl)-4-(2-methoxyethyl)-4H-1,2,4-triazol-3-yl)-2-methylacrylic acid] stands 2.1 nM; under `O=C(O)/C=C/c1nnc(CN2CCC(c3cccc(OCc4ccc(Cl)cc4F)n3)CC2)n1C[C@@H]1CCO1` [Compound 225a, (S,E)-3-(5-((4-(6-((4-chloro-2-fluorobenzyl)oxy)pyridin-2-yl)piperidin-1-yl)methyl)-4-(oxetan-2-ylmethyl)-4H-1,2,4-triazol-3-yl)acrylic acid], 0.26 nM.
In the case of `C/C(=C\c1nnc(CN2CCC(c3cccc(OCc4ccc(Cl)cc4F)n3)CC2)n1C[C@@H]1CCO1)C(=O)O` [Compound 226a, (S,E)-3-(5-((4-(6-((4-chloro-2-fluorobenzyl)oxy)pyridin-2-yl)piperidin-1-yl)methyl)-4-(oxetan-2-ylmethyl)-4H-1,2,4-triazol-3-yl)-2-methylacrylic acid] it was 1.2 nM; in that of `C/C(=C\c1nnc(CN2CCC(c3cccc(OCc4ccc(Cl)cc4F)n3)CC2)n1CCS(C)(=O)=O)C(=O)O` [Compound 227, (E)-3-(5-((4-(6-((4-chloro-2-fluorobenzyl)oxy)pyridin-2-yl)piperidin-1-yl)methyl)-4-(2-(methylsulfonyl)ethyl)-4H-1,2,4-triazol-3-yl)-2-methylacrylic acid], 1.7 nM; in that of `CCn1cncc1Cn1c(/C=C/C(=O)O)nnc1CN1CCC(c2cccc(OCc3ccc(Cl)cc3F)n2)CC1` [Compound 228, (E)-3-(5-((4-(6-((4-chloro-2-fluorobenzyl)oxy)pyridin-2-yl)piperidin-1-yl)methyl)-4-((1-ethyl-1H-imidazol-5-yl)methyl)-4H-1,2,4-triazol-3-yl)acrylic acid], 0.0048 nM.
In the case of `O=C(O)/C=C/c1nnc(CN2CCC(c3cccc(OCc4ccc(Cl)cc4F)n3)CC2)n1CC1CCC1` [Compound 229, (E)-3-(5-((4-(6-((4-chloro-2-fluorobenzyl)oxy)pyridin-2-yl)piperidin-1-yl)methyl)-4-(cyclobutylmethyl)-4H-1,2,4-triazol-3-yl)acrylic acid] it was 2.7 nM.
`O=C(O)/C=C/c1nnc(CN2CCC(c3cccc(OCc4ccc(Cl)cc4F)n3)CC2)n1CC(F)F` [Compound 230, (E)-3-(5-((4-(6-((4-chloro-2-fluorobenzyl)oxy)pyridin-2-yl)piperidin-1-yl)methyl)-4-(2,2-difluoroethyl)-4H-1,2,4-triazol-3-yl)acrylic acid]: the EC50 turned out to be 41 nM.
Under `O=C(O)/C=C/c1nnc(CN2CCC(c3cccc(OCc4ccc(Cl)cc4F)n3)CC2)n1CC1CCCO1` (centres unmarked) [Compound 231, (E)-3-(5-((4-(6-((4-chloro-2-fluorobenzyl)oxy)pyridin-2-yl)piperidin-1-yl)methyl)-4-((tetrahydrofuran-2-yl)methyl)-4H-1,2,4-triazol-3-yl)acrylic acid] stands 0.88 nM; under `O=C(O)/C=C/c1nnc(CN2CCC(c3cccc(OCc4ccc(Cl)cc4F)n3)CC2)n1CC1CCOC1` (centres unmarked) [Compound 232, (E)-3-(5-((4-(6-((4-chloro-2-fluorobenzyl)oxy)pyridin-2-yl)piperidin-1-yl)methyl)-4-((tetrahydrofuran-3-yl)methyl)-4H-1,2,4-triazol-3-yl)acrylic acid], 1.2 nM; under `O=C(O)/C=C/c1nnc(CN2CCC(c3cccc(OCc4ccc(Cl)cc4F)n3)CC2)n1CC1CCOCC1` [Compound 233, (E)-3-[5-[[4-[6-[(4-chloro-2-fluoro-phenyl)methoxy]-2-pyridyl]-1-piperidyl]methyl]-4-(tetrahydropyran-4-ylmethyl)-1,2,4-triazol-3-yl]prop-2-enoic acid], 26 nM.
In the case of `CCn1cncc1Cn1c(/C=C/C(=O)O)nnc1CN1CCC(c2cccc3c2OC[C@@H](c2ccc(Cl)cc2)O3)CC1` [Compound 234a, (R,E)-3-(5-((4-(2-(4-chlorophenyl)-2,3-dihydrobenzo[b][1,4]dioxin-5-yl)piperidin-1-yl)methyl)-4-((1-ethyl-1H-imidazol-5-yl)methyl)-4H-1,2,4-triazol-3-yl)acrylic acid] it was 0.026 nM; in that of `COCCn1c(CN2CCC(c3cccc(OCc4ccc(Cl)cc4F)n3)CC2)nnc1C(C)=CC(=O)O` [Compound 235, 3-(5-((4-(6-((4-chloro-2-fluorobenzyl)oxy)pyridin-2-yl)piperidin-1-yl)methyl)-4-(2-methoxyethyl)-4H-1,2,4-triazol-3-yl)but-2-enoic acid], 10 nM; in that of `CC(=CC(=O)O)c1nnc(CN2CCC(c3cccc(OCc4ccc(Cl)cc4F)n3)CC2)n1CC1CCC1` [Compound 236, 3-(5-((4-(6-((4-chloro-2-fluorobenzyl)oxy)pyridin-2-yl)piperidin-1-yl)methyl)-4-(cyclobutylmethyl)-4H-1,2,4-triazol-3-yl)but-2-enoic acid], 38 nM.
Under `COCCn1c(CCC(=O)O)cnc1CN1CCC(c2cccc3c2OC(C)(c2ccc(Cl)cc2F)O3)CC1` (centres unmarked) [Compound 237, 3-(2-((4-(2-(4-chloro-2-fluorophenyl)-2-methylbenzo[d][1,3]dioxol-4-yl)piperidin-1-yl)methyl)-1-(2-methoxyethyl)-1H-imidazol-5-yl)propanoic acid] stands 0.29 nM.
As to `CC1(c2ccc(Cl)cc2F)Oc2cccc(C3CCN(Cc4ncc(CCC(=O)O)n4CCOC(F)F)CC3)c2O1` (centres unmarked) [Compound 238, 3-(2-((4-(2-(4-chloro-2-fluorophenyl)-2-methylbenzo[d][1,3]dioxol-4-yl)piperidin-1-yl)methyl)-1-(2-(difluoromethoxy)ethyl)-1H-imidazol-5-yl)propanoic acid], the EC50 came to 0.43 nM.
Under `CC1(c2ccc(Cl)cc2F)Oc2cccc(C3CCN(Cc4ncc(CCC(=O)O)n4C[C@@H]4CCO4)CC3)c2O1` (stereo partly drawn) [Compound 239, 3-(2-((4-(2-(4-chloro-2-fluorophenyl)-2-methylbenzo[d][1,3]dioxol-4-yl)piperidin-1-yl)methyl)-1-(((S)-oxetan-2-yl)methyl)-1H-imidazol-5-yl)propanoic acid] stands 0.45 nM.
Under `CC1(c2ccc(Cl)cc2F)Oc2cccc(C3CCN(Cc4ncc(CCC(=O)O)n4CC4CCS4(=O)=O)CC3)c2O1` (centres unmarked) [Compound 240, 3-(2-((4-(2-(4-chloro-2-fluorophenyl)-2-methylbenzo[d][1,3]dioxol-4-yl)piperidin-1-yl)methyl)-1-((1,1-dioxidothietan-2-yl)methyl)-1H-imidazol-5-yl)propanoic acid] stands 0.38 nM; under `Cc1ncoc1Cn1c(CCC(=O)O)cnc1CN1CCC(c2cccc3c2OC(C)(c2ccc(Cl)cc2F)O3)CC1` (centres unmarked) [Compound 241, 3-(2-((4-(2-(4-chloro-2-fluorophenyl)-2-methylbenzo[d][1,3]dioxol-4-yl)piperidin-1-yl)methyl)-1-((4-methyloxazol-5-yl)methyl)-1H-imidazol-5-yl)propanoic acid], 0.21 nM.
Regarding `CC1(c2ccc(Cl)cc2F)Oc2cccc(C3CCN(Cc4ncc(CCC(=O)O)n4Cc4ccccc4)CC3)c2O1` (centres unmarked) [Compound 242, 3-(1-benzyl-2-((4-(2-(4-chloro-2-fluorophenyl)-2-methylbenzo[d][1,3]dioxol-4-yl)piperidin-1-yl)methyl)-1H-imidazol-5-yl)propanoic acid], the EC50 is 0.63 nM.

What is called EC50 is the concentration needed to bring the measured effect to its halfway point.
